Target: mTOR/GbL/Raptor (mTORC1) (Homo sapiens, UniProt P42345)
Test: mTOR/GbL/Raptor (mTORC1) ELISA assay
Type: biochemical
Details: phosphorylation of 4E-BP1; 0.2 nM mTORC1, 10 μM ATP; read-out: IC50 in this assay (mTORC1 ELISA)
Method in brief: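 Human mTORC1 (0.2 nM) phosphorylated 50 nM His-tagged 4E-BP1 with 10 µM ATP in HEPES pH 7.2 containing 10 mM MnCl2, 120 min at ambient temperature. Substrate was captured on Ni-chelate plates; phospho-4E-BP1 was detected by primary antibody and HRP secondary with luminescence.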

Row | Structure (SMILES) | IC50
1 | CC[C@H]1CCc2c(nc(CN(C)C)nc2N2CCOc3ccc(-c4cnc5nc(C)[nH]c5c4)cc3C2)C1 [Example 334, 1-{(7S)-7-ethyl-4-[7-(2-methyl-1H-imidazo[4,5-b]pyridin-6-yl)-2,3-dihydro-1,4-benzoxazepin-4(5H)-yl]-5,6,7,8-tetrahydroquinazolin-2-yl}-N,N-dimethylmethanamine] | 0.01 to 0.05 µM
2 | Cc1nc(CN(C)C)nc(N2CCOc3ccc(-c4ccc5scnc5c4)cc3C2)c1Cc1ccc(F)cc1 [Example 336, 1-{4-[7-(1,3-benzothiazol-5-yl)-2,3-dihydro-1,4-benzoxazepin-4(5H)-yl]-5-[(4-fluorophenyl)methyl]-6-methylpyrimidin-2-yl}-N,N-dimethylmethanamine] | 0.05 to 0.25 µM
3 | CN(C)Cc1nc2c(c(N3CCOc4ccc(-c5ccc6scnc6c5)cc4C3)n1)CC(C)(C)CC2 [Example 337, 1-{4-[7-(1,3-benzothiazol-5-yl)-2,3-dihydro-1,4-benzoxazepin-4(5H)-yl]-6,6-dimethyl-5,6,7,8-tetrahydroquinazolin-2-yl}-N,N-dimethylmethanamine] | 0.25 to 1 µM
4 | COC1Cc2nc(CN(C)C)nc(N3CCOc4ccc(-c5ccc6scnc6c5)cc4C3)c2CC1(C)C (centres unmarked) [Example 338, 1-{4-[7-(1,3-benzothiazol-5-yl)-2,3-dihydro-1,4-benzoxazepin-4(5H)-yl]-6,6-dimethyl-7-(methyloxy)-5,6,7,8-tetrahydroquinazolin-2-yl}-N,N-dimethylmethanamine] | ≥ 2 µM
5 | CN(C)Cc1nc2c(c(N3CCOc4ccc(-c5cnc6nc(C7CC7)[nH]c6c5)cc4C3)n1)CC(C)(C)CC2 [Example 339, 1-{4-[7-(2-cyclopropyl-1H-imidazo[4,5-b]pyridin-6-yl)-2,3-dihydro-1,4-benzoxazepin-4(5H)-yl]-6,6-dimethyl-5,6,7,8-tetrahydroquinazolin-2-yl}-N,N-dimethylmethanamine] | ≤ 0.01 µM
6 | Cc1nc2ncc(-c3ccc4c(c3)CN(c3ncnc5c3CCC(C(C)O)C5)CCO4)cc2[nH]1 (centres unmarked) [Example 340, 1-{4-[7-(2-methyl-1H-imidazo[4,5-b]pyridin-6-yl)-2,3-dihydro-1,4-benzoxazepin-4(5H)-yl]-5,6,7,8-tetrahydroquinazolin-7-yl}ethanol] | 0.05 to 0.25 µM
7 | Cc1nc2c(F)c(-c3ccc4c(c3)CN(c3nc(CN(C)C)nc5c3CC(C)(C)CC5)CCO4)ccc2[nH]1 [Example 341, 1-{4-[7-(4-fluoro-2-methyl-1H-benzimidazol-5-yl)-2,3-dihydro-1,4-benzoxazepin-4(5H)-yl]-6,6-dimethyl-5,6,7,8-tetrahydroquinazolin-2-yl}-N,N-dimethylmethanamine] | 0.25 to 1 µM
8 | Cc1nc2cc(-c3ccc4c(c3)CN(c3nc(CN(C)C)nc5c3CC(C)(C)CC5)CCO4)c(F)cc2[nH]1 [Example 342, 1-{4-[7-(6-fluoro-2-methyl-1H-benzimidazol-5-yl)-2,3-dihydro-1,4-benzoxazepin-4(5H)-yl]-6,6-dimethyl-5,6,7,8-tetrahydroquinazolin-2-yl}-N,N-dimethylmethanamine] | 0.25 to 1 µM
9 | CCc1nc(CN(C)C)nc(N2CCOc3ccc(-c4ccc5[nH]c(C)nc5c4)cc3C2)c1C [Example 343, 1-{4-ethyl-5-methyl-6-[7-(2-methyl-1H-benzimidazol-5-yl)-2,3-dihydro-1,4-benzoxazepin-4(5H)-yl]pyrimidin-2-yl}-N,N-dimethylmethanamine] | 1 to 2 µM
10 | CCc1nc(CN(C)C)nc(N2CCOc3ccc(-c4cnc5[nH]c(C)nc5c4)cc3C2)c1C [Example 344, 1-{4-ethyl-5-methyl-6-[7-(2-methyl-3H-imidazo[4,5-b]pyridin-6-yl)-2,3-dihydro-1,4-benzoazepin-4(5H)-yl]pyrimnidin-2-yl}-N,N-dimethylmethanamine] | 0.25 to 1 µM
11 | Cc1nc2ccc(-c3ccc4c(c3)CN(c3nc(CN(C)C)nc(C)c3CC3CC3)CCO4)cc2[nH]1 [Example 345, 1-{5-(cyclopropylmethyl)-4-methyl-6-[7-(2-methyl-1H-benzimidazo-6-yl)-2,3-dihydro-1,4-benzoxazepin-4(5H)-yl]pyrimidin-2-yl}-N,N-dimethylmethanamine] | 0.25 to 1 µM
12 | Cc1nc2ncc(-c3ccc4c(c3)CN(c3nc(CN(C)C)nc(C)c3CC3CC3)CCO4)cc2[nH]1 [Example 346, 1-{5-(cyclopropylmethyl)-4-methyl-6-[7-(2-methyl-1H-imidazo[4,5-b]pyridin-6-yl)-2,3-dihydro-1,4-benzoxazepin-4(5H)-yl]pyrimidin-2-yl}-N,N-dimethylmethanamine] | 0.05 to 0.25 µM
13 | Cc1nc2cc(-c3ccc4c(c3)CN(c3nc(CN(C)C)nc(C)c3Cc3ccc(F)cc3)CCO4)ccc2[nH]1 [Example 347, 1-{5-[(4-fluorophenyl)methyl]-4-methyl-6-[7-(2-methyl-1H-benzimidazol-5-yl)-2,3-dihydro-1,4-benzoxazepin-4(5H)-yl]pyrimidin-2-yl}-N,N-dimethylmethanamine] | ≤ 0.01 µM
14 | Cc1nc2cc(-c3ccc4c(c3)CN(c3nc(CN(C)C)nc(C)c3Cc3ccc(F)cc3)CCO4)cnc2[nH]1 [Example 348, 1-{5-[(4-fluorophenyl)methyl]-4-methyl-6-[7-(2-methyl-3H-imidazo[4,5-b]pyridin-6-yl)-2,3-dihydro-1,4-benzoxazepin-4(5H)-yl]pyrimidin-2-yl}-N,N-dimethylmethanamine] | ≤ 0.01 µM
15 | CCc1c(C)nc(CN(C)C)nc1N1CCOc2ccc(-c3ccc4[nH]c(C)nc4c3)cc2C1 [Example 349, 1-{5-ethyl-4-methyl-6-[7-(2-methyl-1H-benzimidazol-5-yl)-2,3-dihydro-1,4-benzoxazepin-4(5H)-yl]pyrimidin-2-yl}-N,N-dimethylmethanamine] | 0.25 to 1 µM
16 | CCc1c(C)nc(CN(C)C)nc1N1CCOc2ccc(-c3cnc4[nH]c(C)nc4c3)cc2C1 [Example 350, 1-{5-ethyl-4-methyl-6-[7-(2-methyl-3H-imidazo[4,5-b]pyridin-6-yl)-2,3-dihydro-1,4-benzoxazepin-4(5H)-yl]pyrimidin}-N,N-dimethylmethanamine] | 0.05 to 0.25 µM
17 | Cc1nc2ccc(-c3ccc4c(c3)CN(c3nc(CN(C)C)nc5c3CC(C)(C)CC5)CCO4)cc2[nH]1 [Example 351, 1-{6,6-dimethyl-4-[7-(2-methyl-1H-benzimidazol-6-yl)-2,3-dihydro-1,4-benzoxazepin-4(5H)-yl]-5,6,7,8-tetrahydroquinazolin-2-yl}-N,N-dimethylmethanamine] | 0.01 to 0.05 µM
18 | Cc1nc2ncc(-c3ccc4c(c3)CN(c3nc(CN)nc5c3CC(C)(C)CC5)CCO4)cc2[nH]1 [Example 352, 1-{6,6-dimethyl-4-[7-(2-methyl-1H-imidazo[4,5-b]pyridin-6-yl)-2,3-dihydro-1,4-benzoxazepin-4(5H)-yl]-5,6,7,8-tetrahydroquinazolin-2-yl}methanamine] | ≤ 0.01 µM
19 | Cc1nc2ncc(-c3ccc4c(c3)CN(c3nc(CN(C)C)nc5c3CC(C)(C)CC5)CCO4)cc2[nH]1 [Example 353, 1-{6,6-dimethyl-4-[7-(2-methyl-1H-imidazo[4,5-b]pyridin-6-yl)-2,3-dihydro-1,4-benzoxazepin-4(5H)-yl]-5,6,7,8-tetrahydroquinazolin-2-yl}-N,N-dimethylmethanamine] | ≤ 0.01 µM
20 | CNCc1nc2c(c(N3CCOc4ccc(-c5cnc6nc(C)[nH]c6c5)cc4C3)n1)CC(C)(C)CC2 [Example 354, 1-{6,6-dimethyl-4-[7-(2-methyl-1H-imidazo[4,5-b]pyridin-6-yl)-2,3-dihydro-1,4-benzoxazepin-4(5H)-yl]-5,6,7,8-tetrahydroquinazolin-2-yl}-N-methylmethanamine] | ≤ 0.01 µM
21 | COC1Cc2nc(CN(C)C)nc(N3CCOc4ccc(-c5cnc6nc(C)[nH]c6c5)cc4C3)c2CC1(C)C (centres unmarked) [Example 355, 1-{6,6-dimethyl-4-[7-(2-methyl-1H-imidazo[4,5-b]pyridin-6-yl)-2,3-dihydro-1,4-benzoxazepin-4(5H)-yl]-7-(methyloxy)-5,6,7,8-tetrahydroquinazolin-2-yl}-N,N-dimethylmethanamine] | 0.05 to 0.25 µM
22 | Cc1nc2cc(-c3ccc4c(c3)CN(c3nc(C(C)N(C)C)nc5c3CC(C)(C)CC5)CCO4)cnc2[nH]1 (centres unmarked) [Example 356, 1-{6,6-dimethyl-4-[7-(2-methyl-3H-imidazo[4,5-b]pyridin-6-yl)-2,3-dihydro-1,4-benzoxazepin-4(5H)-yl]-5,6,7,8-tetrahydroquinazolin-2-yl}-N,N-dimethylethanamine] | 0.05 to 0.25 µM
23 | CN(C)Cc1nc2ncc(-c3ccc4c(c3)CN(c3ncnc5c3CC(C)(C)CC5)CCO4)cc2[nH]1 [Example 357, 1-{6-[4-(6,6-dimethyl-5,6,7,8-tetrahydroquinazolin-4-yl)-2,3,4,5-tetrahydro-1,4-benzoxazepin-7-yl]-1H-imidazo[4,5-b]pyridin-2-yl}-N,N-dimethylmethanamine] | 0.25 to 1 µM
24 | CNCc1nc2ncc(-c3ccc4c(c3)CN(c3ncnc5c3CC(C)(C)CC5)CCO4)cc2[nH]1 [Example 358, 1-{6-[4-(6,6-dimethyl-5,6,7,8-tetrahydroquinazolin-4-yl)-2,3,4,5-tetrahydro-1,4-benzoxazepin-7-yl]-1H-imidazo[4,5-b]pyridin-2-yl}-N-methylmethanamine] | 0.01 to 0.05 µM
25 | Cc1nc2ncc(-c3ccc4c(c3)CN(c3nc(CN(C)C)nc5ccc(F)cc35)CCO4)cc2[nH]1 [Example 359, 1-{6-fluoro-4-[7-(2-methyl-1H-imidazo[4,5-b]pyridin-6-yl)-2,3-dihydro-1,4-benzoxazepin-4(5H)-yl]quinazolin-2-yl}-N,N-dimethylmethanamine] | 0.25 to 1 µM
26 | Cc1nc2ncc(-c3ccc4c(c3)CN(c3nc(CNC(C)C5CC5)nc5c3CC(C)(C)CC5)CCO4)cc2[nH]1 (centres unmarked) [Example 360, 1-cyclopropyl-N-({6,6-dimethyl-4-[7-(2-methyl-1H-imidazo[4,5-b]pyridin-6-yl)-2,3-dihydro-1,4-benzoxazepin-4(5H)-yl]-5,6,7,8-tetrahydroquinazolin-2-yl}methyl)ethanamine] | 0.01 to 0.05 µM
